Values of other authors as cited in patent US12728103B2, “Pharmaceutical composition comprising mitotane administered orally for treatment of adrenocortical carcinoma and Cushing's syndrome” (priority 2019, dated 2026).

Clc1ccc(C(c2ccccc2Cl)C(Cl)Cl)cc1 (centres unmarked) [Mitotane, ortho,para'dichloro-diphenyl-dichloroethane]
concentration in fat relative to plasma (accumulation in fat): ~200 times | product found in the faeces in an unmetabolized form (humans, conventional tablet): 60% | mitotaemia at which neurological disorders (ataxia, depressive syndrome) occur (patients): exceeds 20 mg/L | plasma concentration to be reached to be effective (patients): at least 14 mg/L | treatment time to reach the effective plasma concentration (patients, average): 3 months
